Assay [1] addresses T1, E-Selectin (Homo sapiens, UniProt P16581).
T1 sequence (P16581 22-610): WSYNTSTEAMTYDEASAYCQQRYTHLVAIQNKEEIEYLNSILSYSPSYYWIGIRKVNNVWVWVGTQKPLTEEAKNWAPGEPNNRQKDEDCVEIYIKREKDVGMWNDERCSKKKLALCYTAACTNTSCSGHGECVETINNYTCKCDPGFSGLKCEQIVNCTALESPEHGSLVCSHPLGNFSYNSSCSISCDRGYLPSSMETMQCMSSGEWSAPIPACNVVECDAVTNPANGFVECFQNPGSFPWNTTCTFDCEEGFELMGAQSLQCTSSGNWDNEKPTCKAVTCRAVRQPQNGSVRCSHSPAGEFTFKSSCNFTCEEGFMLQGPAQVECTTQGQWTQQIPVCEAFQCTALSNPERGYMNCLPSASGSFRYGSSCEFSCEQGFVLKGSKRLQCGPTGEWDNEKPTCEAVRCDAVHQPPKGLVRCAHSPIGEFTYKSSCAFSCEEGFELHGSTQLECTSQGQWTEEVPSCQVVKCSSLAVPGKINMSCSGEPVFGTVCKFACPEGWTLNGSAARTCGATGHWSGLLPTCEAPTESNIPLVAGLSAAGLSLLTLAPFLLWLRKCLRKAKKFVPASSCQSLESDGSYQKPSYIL
Kind of assay: ELISA inhibition of recombinant E-selectin binding to immobilized SLe^x. The conditions noted are these: mean of 3 determinations, read-out: IC50 Values Against SLe^x, E-Selectin. The method, then: (§1) Relative Inhibitory Properties of Branched Chains Including Neu5Ac and/or GalNAcLe^x Against Recombinant Selectins Binding to Immobilized SLe^x
(§2) ELISA inhibition studies were done as previously reported conditions. Ic50 values against immobilized SLe^x are the mean values of 3 determinations and were calculated according to published methodology.
On the technique in general: In an ELISA, binding on a coated surface is turned into a signal by an enzyme label.

Assay [2] deals with T2, P-Selectin (Homo sapiens, UniProt P16109).
T2 sequence (P16109 42-830): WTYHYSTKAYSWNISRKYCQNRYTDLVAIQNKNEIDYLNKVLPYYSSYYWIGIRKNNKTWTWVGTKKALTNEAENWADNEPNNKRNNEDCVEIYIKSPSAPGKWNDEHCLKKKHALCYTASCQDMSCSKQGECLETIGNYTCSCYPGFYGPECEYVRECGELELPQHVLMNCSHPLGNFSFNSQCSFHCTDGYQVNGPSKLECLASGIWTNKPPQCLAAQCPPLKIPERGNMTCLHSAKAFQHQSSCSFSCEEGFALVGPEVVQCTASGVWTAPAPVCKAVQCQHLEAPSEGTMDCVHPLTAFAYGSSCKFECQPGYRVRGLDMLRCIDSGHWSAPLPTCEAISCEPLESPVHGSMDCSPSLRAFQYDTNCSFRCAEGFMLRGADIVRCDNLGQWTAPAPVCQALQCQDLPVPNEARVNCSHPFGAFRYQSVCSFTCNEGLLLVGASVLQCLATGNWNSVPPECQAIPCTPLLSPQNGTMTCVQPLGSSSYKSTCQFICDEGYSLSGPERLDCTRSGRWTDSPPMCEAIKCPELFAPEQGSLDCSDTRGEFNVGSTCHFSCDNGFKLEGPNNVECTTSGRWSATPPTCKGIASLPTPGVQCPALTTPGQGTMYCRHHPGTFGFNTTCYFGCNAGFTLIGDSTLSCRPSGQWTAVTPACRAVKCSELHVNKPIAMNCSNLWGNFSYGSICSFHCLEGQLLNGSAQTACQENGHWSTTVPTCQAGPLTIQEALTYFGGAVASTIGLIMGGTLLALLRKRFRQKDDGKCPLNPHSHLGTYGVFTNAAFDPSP
Kind of assay: Other studies of binding (unspecified; P-selectin context). The settings on record: no details given.

In assay [3] the target is T3, L-Selectin (Homo sapiens, UniProt P14151).
T3 sequence (P14151 39-372): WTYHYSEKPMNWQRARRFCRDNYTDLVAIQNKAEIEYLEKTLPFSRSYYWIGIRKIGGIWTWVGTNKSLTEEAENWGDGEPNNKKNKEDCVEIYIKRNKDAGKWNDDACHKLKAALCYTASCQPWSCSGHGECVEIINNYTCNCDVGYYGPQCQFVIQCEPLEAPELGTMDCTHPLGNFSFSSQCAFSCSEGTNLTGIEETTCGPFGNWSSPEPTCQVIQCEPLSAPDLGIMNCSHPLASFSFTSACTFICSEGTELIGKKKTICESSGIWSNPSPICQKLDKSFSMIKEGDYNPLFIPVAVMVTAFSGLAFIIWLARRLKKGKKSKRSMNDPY
Description: ELISA inhibition of recombinant L-selectin binding to immobilized SLe^x. The settings on record: mean of 3 determinations, read-out: IC50 Values Against SLe^x, L-Selectin. The method, then:
as §1, §2

Assay [4] addresses T2, P-Selectin. Kind of assay: ELISA inhibition of recombinant P-selectin binding to immobilized SLe^x. The conditions noted are these: for IC50: recombinant selectin, immobilized SLe^x, ELISA, mean of 3 determinations, read-out: IC50 Values Against SLe^x, P-Selectin. The method, then:
as §1, §2

The target in assay [5] is T3, L-Selectin. The conditions noted are these: cited from earlier work; for affinity for L-selectin: recent study / inhibition studies of Scudder et al.
Assay [6] deals with T1, E-Selectin. The conditions noted are these: isolated from human cell produced Protein C; cited from earlier work.

As usually defined, the IC50 is the midpoint of a concentration-inhibition curve. On to `CO[C@H]1O[C@H](CO[C@@H]2O[C@H](CO)[C@@H](O[C@@H]3O[C@H](CO)[C@H](O)[C@H](O)[C@H]3NC(C)=O)[C@H](O[C@@H]3O[C@@H](C)[C@@H](O)[C@@H](O)[C@@H]3O)[C@H]2NC(C)=O)[C@H](O)[C@H](O[C@@H]2O[C@H](CO)[C@H](O)[C@H](OS(=O)(=O)O)[C@H]2O)[C@H]1NC(C)=O` [Compound 19], for which the IC50 is more than 500 µM at E-Selectin [1], 500 µM on L-Selectin [3] and more than 500 µM on P-Selectin [4]. In addition, the “binding in other studies” value on P-Selectin [2] is “even greater binding”. Further, the “binding ability relative to sialyl Lewis^x for P-selectin” value on P-Selectin [4] (compared with sialyl Lewis^x) was “about six”.

In the case of “NeuAcα2→3Galβ1→4(Fucα1→3)SE-3GlcNAcβ1→3Gal”, at L-Selectin [5], the “affinity for L-selectin” value is recorded as “lacked a high affinity”.

Turning to `CO[C@@H]1O[C@H](CO)[C@@H](O[C@@H]2O[C@H](CO)[C@H](O)[C@H](O)[C@H]2NC(C)=O)[C@H](O[C@@H]2O[C@@H](C)[C@@H](O)[C@@H](O)[C@@H]2O)[C@H]1NC(C)=O` [Compound 8b], the IC50 is more than 500 µM at E-Selectin [1], 300 µM at L-Selectin [3] and 400 µM at P-Selectin [4].

For the molecule `COC1O[C@H](CO)[C@@H](O[C@@H]2O[C@H](COS(=O)(=O)O)[C@H](O)[C@H](O[C@]3(C(=O)O)C[C@H](O)[C@@H](NC(C)=O)[C@H]([C@H](O)[C@H](O)CO)O3)[C@H]2O)[C@H](O[C@@H]2O[C@@H](C)[C@@H](O)[C@@H](O)[C@@H]2O)[C@H]1NC(C)=O` (stereo partly shown) [NeuAcα2→3SE-6 Galβ1→4(Fucα1→3)GlcNAcOMe], on L-Selectin [5], the “affinity for L-selectin” value was “lacked a high affinity”. For the same molecule, the “ligand quality for L-selectin” value at L-Selectin [5] (recent study) is given as “not a superior ligand”.

In the case of `CO[C@H]1O[C@H](CO[C@@H]2O[C@H](CO)[C@@H](O[C@@H]3O[C@H](CO)[C@H](O)[C@H](O)[C@H]3NC(C)=O)[C@H](O[C@@H]3O[C@@H](C)[C@@H](O)[C@@H](O)[C@@H]3O)[C@H]2NC(C)=O)[C@H](O)[C@H](O[C@@H]2O[C@H](CO)[C@H](O)[C@H](O)[C@H]2O)[C@H]1NC(C)=O` [Compound 14, Methyl O-(2-acetamido-2-deoxy-β-D-galactopyranosyl)-(1→4)-O-[(α-L-fucopyranosyl)-(1→3)-O]-(2-acetamido-2-deoxy-β-D-glucopyranosyl)-(1→6)-O-[(β-D-galactopyranosyl)-(1→3)-O]-2-acetamido-2-deoxy-α-D-galactopyranoside], the results for the IC50 at E-Selectin [1], at L-Selectin [3] and on P-Selectin [4] were more than 500 µM, 300 µM and 400 µM, respectively.

Turning to “GalNAcβ1→4(Fucα1→3)GlcNAcβ1→Manα1→3/6Manβ1→4GlcNAcβ1→4GlcNAc”, the “inhibition of E-selectin” value on E-Selectin [6] is “potent inhibitor”.

Turning to sialyl Lewis^x [reference compound], on L-Selectin [3], the IC50 worked out at 600 µM.

For `CO[C@H]1O[C@H](CO[C@@H]2O[C@H](CO)[C@@H](O[C@@H]3O[C@H](CO)[C@H](O)[C@H](O)[C@H]3NC(C)=O)[C@H](O[C@@H]3O[C@@H](C)[C@@H](O)[C@@H](O)[C@@H]3O)[C@H]2NC(C)=O)[C@H](O)[C@H](O[C@@H]2O[C@H](CO)[C@H](O)[C@H](O[C@]3(C(=O)O)C[C@H](O)[C@@H](NC(C)=O)[C@H]([C@H](O)[C@H](O)CO)O3)[C@H]2O)[C@H]1NC(C)=O` [Compound 16], the IC50 is more than 500 µM on E-Selectin [1], 105 µM on L-Selectin [3] and 85 µM at P-Selectin [4].

The record behind these values is patent US5972907A, “Synthetic core 2-like branched structures containing GalNAc-lewis^x and Neu5Acα2-3Galβ1-3GalNAc sequences as novel ligands for selectins” (Health Research, Inc., priority 1997, dated 1999).
